Assay results taken from patent US12371428B2 (Exelixis, Inc., priority 2019, dated 2025).
Read-outs that look alike come from different tables or passages of the source.

Legend:
Assay type in all cases: cell-based
[1] = molecular target: AXL (phospho-AXL, Gas6-stimulated A-172 glioblastoma cells) (Homo sapiens (Human), UniProt P30530); assay: AXL autophosphorylation ELISA in A-172 cells (Example E); conditions: cellular activity, read-out: Axl IC50
Procedure, shortened: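 Phospho-AXL was measured by ELISA in lysates of Gas6-stimulated A-172 cells, starved 24 h in serum-free medium and exposed 1 h to an 8-point compound dilution at 0.3% DMSO.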

[2] = molecular target: KDR (phospho-KDR, VEGF165-stimulated HUVEC cells) (Homo sapiens (Human), UniProt P35968); assay: KDR autophosphorylation ELISA in HUVEC cells (Example G); conditions: cellular activity
Sequence of KDR (phospho-KDR, VEGF165-stimulated HUVEC cells) (P35968 20-1356): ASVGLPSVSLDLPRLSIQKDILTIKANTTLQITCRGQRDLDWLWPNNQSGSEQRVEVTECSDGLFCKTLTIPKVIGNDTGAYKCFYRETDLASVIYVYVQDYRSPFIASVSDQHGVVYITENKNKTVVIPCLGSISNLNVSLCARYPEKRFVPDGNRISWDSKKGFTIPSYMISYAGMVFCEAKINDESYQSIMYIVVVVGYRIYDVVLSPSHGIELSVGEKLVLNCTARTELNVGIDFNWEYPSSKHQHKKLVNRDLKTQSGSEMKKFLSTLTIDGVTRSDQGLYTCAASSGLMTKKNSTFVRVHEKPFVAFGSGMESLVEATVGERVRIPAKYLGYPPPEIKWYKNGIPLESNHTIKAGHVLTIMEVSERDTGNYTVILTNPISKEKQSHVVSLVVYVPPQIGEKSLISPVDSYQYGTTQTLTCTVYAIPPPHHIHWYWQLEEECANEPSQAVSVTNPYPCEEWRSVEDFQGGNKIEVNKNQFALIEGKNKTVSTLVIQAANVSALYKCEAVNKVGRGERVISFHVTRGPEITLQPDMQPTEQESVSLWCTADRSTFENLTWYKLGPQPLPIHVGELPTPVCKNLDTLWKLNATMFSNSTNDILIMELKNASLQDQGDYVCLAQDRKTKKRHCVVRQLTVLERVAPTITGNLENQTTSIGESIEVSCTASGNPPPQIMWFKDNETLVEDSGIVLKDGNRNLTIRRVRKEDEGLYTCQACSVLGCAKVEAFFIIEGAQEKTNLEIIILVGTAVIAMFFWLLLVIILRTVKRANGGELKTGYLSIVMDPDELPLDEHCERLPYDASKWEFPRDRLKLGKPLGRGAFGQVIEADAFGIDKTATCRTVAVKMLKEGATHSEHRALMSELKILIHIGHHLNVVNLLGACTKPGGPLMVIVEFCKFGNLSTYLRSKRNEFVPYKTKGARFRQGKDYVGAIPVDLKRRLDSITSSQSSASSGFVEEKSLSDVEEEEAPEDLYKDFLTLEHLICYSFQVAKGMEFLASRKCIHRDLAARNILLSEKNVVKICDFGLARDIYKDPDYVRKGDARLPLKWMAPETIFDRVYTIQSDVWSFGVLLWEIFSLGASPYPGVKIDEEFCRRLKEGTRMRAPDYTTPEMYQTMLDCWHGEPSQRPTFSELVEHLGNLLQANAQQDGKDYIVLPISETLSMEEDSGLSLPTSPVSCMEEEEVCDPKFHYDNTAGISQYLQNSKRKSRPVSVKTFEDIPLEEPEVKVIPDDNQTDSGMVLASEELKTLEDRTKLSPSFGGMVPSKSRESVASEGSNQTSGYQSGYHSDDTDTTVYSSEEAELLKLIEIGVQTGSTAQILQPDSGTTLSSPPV
Procedure, shortened: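 Read-out is phospho-KDR measured by ELISA in lysates of VEGF165-stimulated (100 ng/mL, 5 min) HUVEC that were serum-starved 24 h and then pre-exposed 1 h to compound across 8 doses in 0.3% DMSO. Unstimulated lysates defined 0% and stimulated vehicle lysates 100% activity; IC50 values come from 4-parameter logistic regression.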

[3] = molecular target: Mer (phospho-Mer, MERTK-transfected 293A cells) (Homo sapiens (Human), UniProt Q12866); assay: Mer autophosphorylation ELISA in transient transfected 293A cells (Example H); conditions: cellular activity
Sequence of Mer (phospho-Mer, MERTK-transfected 293A cells) (Q12866 21-999): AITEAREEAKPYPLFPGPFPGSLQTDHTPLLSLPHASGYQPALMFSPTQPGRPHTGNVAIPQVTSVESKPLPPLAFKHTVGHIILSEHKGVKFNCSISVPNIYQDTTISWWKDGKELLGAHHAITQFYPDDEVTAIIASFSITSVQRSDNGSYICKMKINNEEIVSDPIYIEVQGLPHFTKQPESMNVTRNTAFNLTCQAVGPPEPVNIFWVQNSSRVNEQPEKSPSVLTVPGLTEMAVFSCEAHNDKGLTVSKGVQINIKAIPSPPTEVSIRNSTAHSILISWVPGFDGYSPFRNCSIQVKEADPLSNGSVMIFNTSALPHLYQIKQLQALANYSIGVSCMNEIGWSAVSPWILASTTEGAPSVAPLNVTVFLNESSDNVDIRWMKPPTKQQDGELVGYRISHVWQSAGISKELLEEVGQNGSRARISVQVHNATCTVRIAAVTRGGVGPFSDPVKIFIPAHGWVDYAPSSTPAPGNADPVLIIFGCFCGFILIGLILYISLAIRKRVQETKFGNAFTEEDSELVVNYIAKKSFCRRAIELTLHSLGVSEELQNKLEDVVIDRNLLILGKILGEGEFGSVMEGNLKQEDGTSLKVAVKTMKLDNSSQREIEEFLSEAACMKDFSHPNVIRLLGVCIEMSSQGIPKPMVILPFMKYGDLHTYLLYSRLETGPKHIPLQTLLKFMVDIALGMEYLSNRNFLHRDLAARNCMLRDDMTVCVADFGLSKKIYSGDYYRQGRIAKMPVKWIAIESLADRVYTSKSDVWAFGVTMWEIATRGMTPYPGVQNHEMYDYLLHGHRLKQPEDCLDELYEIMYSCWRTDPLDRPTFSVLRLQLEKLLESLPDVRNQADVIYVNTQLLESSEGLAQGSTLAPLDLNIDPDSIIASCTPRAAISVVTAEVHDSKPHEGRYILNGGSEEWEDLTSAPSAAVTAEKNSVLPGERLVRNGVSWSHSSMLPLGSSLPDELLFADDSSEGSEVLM
Procedure, shortened: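 IC50 from 4-parameter logistic fit of phospho-Mer levels, quantified by ELISA against a phospho-Mer standard in lysates of MERTK-transfected 293A cells. Cells exposed 1 h to 8-point serial dilutions, serum-free, 0.3% DMSO; controls: DMSO (100%) and reference inhibitor (0%).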

[4] = molecular target: Met (phospho-Met, HGF-stimulated PC-3 prostate cancer cells) (Homo sapiens (Human), UniProt P08581); assay: Met autophosphorylation ELISA in PC-3 cells (Example F); conditions: cellular activity, read-out: c-Met IC50
Sequence of Met (phospho-Met, HGF-stimulated PC-3 prostate cancer cells) (P08581 25-1390): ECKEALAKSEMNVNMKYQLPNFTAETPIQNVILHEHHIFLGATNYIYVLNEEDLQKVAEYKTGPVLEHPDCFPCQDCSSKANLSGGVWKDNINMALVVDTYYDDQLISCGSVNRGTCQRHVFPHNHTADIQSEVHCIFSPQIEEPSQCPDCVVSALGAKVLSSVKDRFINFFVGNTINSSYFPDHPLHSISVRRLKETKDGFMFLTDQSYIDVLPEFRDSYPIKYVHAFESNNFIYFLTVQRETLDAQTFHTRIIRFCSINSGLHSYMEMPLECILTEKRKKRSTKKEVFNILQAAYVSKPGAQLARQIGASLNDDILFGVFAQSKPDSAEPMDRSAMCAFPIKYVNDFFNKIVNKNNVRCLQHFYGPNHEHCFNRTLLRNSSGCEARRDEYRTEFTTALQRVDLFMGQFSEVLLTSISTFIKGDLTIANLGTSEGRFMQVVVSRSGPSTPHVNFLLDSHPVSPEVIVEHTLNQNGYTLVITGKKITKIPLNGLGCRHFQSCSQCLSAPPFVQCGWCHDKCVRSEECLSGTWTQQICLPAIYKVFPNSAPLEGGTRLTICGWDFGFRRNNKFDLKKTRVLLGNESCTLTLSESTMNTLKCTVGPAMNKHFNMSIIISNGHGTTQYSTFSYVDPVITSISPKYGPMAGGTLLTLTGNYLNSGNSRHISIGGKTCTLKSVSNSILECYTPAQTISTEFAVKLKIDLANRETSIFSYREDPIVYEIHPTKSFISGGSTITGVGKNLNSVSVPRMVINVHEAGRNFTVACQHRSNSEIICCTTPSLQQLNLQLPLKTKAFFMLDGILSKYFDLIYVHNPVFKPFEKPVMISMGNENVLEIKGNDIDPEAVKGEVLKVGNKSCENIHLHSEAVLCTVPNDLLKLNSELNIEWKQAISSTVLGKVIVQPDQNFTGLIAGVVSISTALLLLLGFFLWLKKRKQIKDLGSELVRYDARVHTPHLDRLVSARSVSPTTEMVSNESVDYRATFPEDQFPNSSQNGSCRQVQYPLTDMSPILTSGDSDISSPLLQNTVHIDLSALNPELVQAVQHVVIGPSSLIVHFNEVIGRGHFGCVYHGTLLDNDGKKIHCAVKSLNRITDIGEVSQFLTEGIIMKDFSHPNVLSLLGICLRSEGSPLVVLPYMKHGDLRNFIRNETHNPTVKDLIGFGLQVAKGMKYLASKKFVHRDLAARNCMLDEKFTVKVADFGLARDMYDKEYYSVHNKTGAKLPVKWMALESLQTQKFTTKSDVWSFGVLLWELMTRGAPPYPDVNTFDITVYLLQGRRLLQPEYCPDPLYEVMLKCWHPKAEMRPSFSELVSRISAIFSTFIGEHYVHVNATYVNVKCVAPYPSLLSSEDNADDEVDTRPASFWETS
Procedure, shortened: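 Serum-starved (3 h) PC-3 cells were treated 1 h with compounds (8-point curve, 0.3% DMSO), then stimulated with 100 ng/mL human HGF for 10 min. Lysate phospho-Met (panTyr) was measured by sandwich ELISA, normalised to DMSO and reference-inhibitor controls. IC50 came from 4-parameter logistic fit.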

[5] = AXL autophosphorylation ELISA in A-172 cells
[6] = KDR autophosphorylation ELISA in HUVEC cells
[7] = Mer autophosphorylation ELISA in transient transfected 293A cells
[8] = Met autophosphorylation ELISA in PC-3 cells

Sequence of AXL (phospho-AXL, Gas6-stimulated A-172 glioblastoma cells) (P30530 26-894): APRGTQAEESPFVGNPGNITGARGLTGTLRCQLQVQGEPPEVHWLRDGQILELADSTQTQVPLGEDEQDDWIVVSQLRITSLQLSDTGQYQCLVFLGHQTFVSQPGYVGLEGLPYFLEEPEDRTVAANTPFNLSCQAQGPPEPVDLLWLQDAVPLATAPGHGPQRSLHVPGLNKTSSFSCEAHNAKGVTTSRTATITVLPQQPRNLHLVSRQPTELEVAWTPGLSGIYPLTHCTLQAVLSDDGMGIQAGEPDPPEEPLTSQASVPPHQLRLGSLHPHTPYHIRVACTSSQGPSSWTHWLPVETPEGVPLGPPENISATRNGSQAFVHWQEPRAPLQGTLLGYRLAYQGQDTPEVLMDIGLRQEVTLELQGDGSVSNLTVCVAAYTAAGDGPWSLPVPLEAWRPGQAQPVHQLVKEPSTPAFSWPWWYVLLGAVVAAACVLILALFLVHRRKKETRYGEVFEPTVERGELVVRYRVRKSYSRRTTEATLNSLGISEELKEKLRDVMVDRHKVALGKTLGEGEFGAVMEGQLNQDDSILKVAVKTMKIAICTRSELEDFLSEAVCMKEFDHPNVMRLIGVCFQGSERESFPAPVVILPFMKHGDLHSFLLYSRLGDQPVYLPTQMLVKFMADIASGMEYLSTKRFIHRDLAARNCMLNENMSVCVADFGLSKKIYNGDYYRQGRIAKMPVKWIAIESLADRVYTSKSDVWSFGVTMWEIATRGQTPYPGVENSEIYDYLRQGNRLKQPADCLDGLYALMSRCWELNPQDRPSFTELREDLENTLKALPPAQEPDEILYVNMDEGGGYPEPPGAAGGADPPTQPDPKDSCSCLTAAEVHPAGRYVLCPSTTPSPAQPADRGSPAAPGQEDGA

Compound | IC50 [1, 5] [nM] | IC50 [2, 6] [nM] | IC50 [3, 7] [nM] | IC50 [4, 8] [nM] | IC50 ([1]; A-172 cells) [nM] | IC50 ([2]; HUVEC cells) [nM] | IC50 ([3]; transfected 293A cells) [nM] | IC50 ([4]; PC-3 cells) [nM]
COc1cc2nccc(Oc3ccc(NC(=O)c4cn(C)c(C5CC5)c(-c5ccc(F)cc5)c4=O)cc3F)c2nc1OC [Compound 728, 6-cyclopropyl-N-[4-[(6,7-dimethoxy-1,5-naphthyridin-4-yl)oxy]-3-fluorophenyl]-5-(4-fluorophenyl)-1-methyl-4-oxopyridine-3-carboxamide] | < 100 | 100 to 300 | < 100 | < 100 | – | – | – | –
COc1cc(Oc2ccnc3cc(OC)c(OC)nc23)c(F)cc1NC(=O)c1cn(C)c(C)c(-c2ccc(F)cc2)c1=O [Compound 743, N-[4-[(6,7-dimethoxy-1,5-naphthyridin-4-yl)oxy]-5-fluoro-2-methoxyphenyl]-5-(4-fluorophenyl)-1,6-dimethyl-4-oxopyridine-3-carboxamide] | < 100 | > 300 | < 100 | < 100 | – | – | – | –
COc1nc2c(Oc3ccc(NC(=O)c4n[nH]c(C)c(-c5ccc(F)cc5)c4=O)cc3F)ccnc2cc1C [Compound 472, N-[3-fluoro-4-[(6-methoxy-7-methyl-1,5-naphthyridin-4-yl)oxy]phenyl]-5-(4-fluorophenyl)-6-methyl-4-oxo-1H-pyridazine-3-carboxamide] | < 100 | < 100 | < 100 | < 100 | – | – | – | –
COc1cc2nccc(Oc3ccc(NC(=O)c4cn(C5(C)COC5)cc(-c5ccc(F)cc5)c4=O)cc3F)c2cc1OC [Compound 55, N-[4-(6,7-Dimethoxyquinolin-4-yl)oxy-3-fluorophenyl]-5-(4-fluorophenyl)-1-(3-methyloxetan-3-yl)-4-oxopyridine-3-carboxamide] | < 100 | > 300 | < 100 | < 100 | – | – | – | –
COc1cnc2c(Oc3ccc(NC(=O)c4c(C)ncc(-c5ccc(F)c(C)c5)c4O)cc3F)ccnc2c1 [Compound 795, N-[3-fluoro-4-[(7-methoxy-1,5-naphthyridin-4-yl)oxy]phenyl]-5-(4-fluoro-3-methylphenyl)-4-hydroxy-2-methylpyridine-3-carboxamide] | < 100 | < 100 | < 100 | < 100 | – | – | – | –
CCc1c(C)c(C(=O)Nc2ccc(Oc3ccnc4cc(OC)c(OC)nc34)c(F)c2)c(=O)n(-c2ccc(F)cc2)c1C [Compound 330, N-[4-[(6,7-dimethoxy-1,5-naphthyridin-4-yl)oxy]-3-fluorophenyl]-5-ethyl-1-(4-fluorophenyl)-4,6-dimethyl-2-oxopyridine-3-carboxamide] | < 100 | > 300 | < 100 | < 100 | – | – | – | –
COc1cc2nccc(Oc3ccc(NC(=O)c4c(C)c(C(C)=O)c(C)n(-c5ccc(F)cc5)c4=O)cc3)c2nc1OC [Compound 322, 5-Acetyl-N-[4-[(6,7-dimethoxy-1,5-naphthyridin-4-yl)oxy]phenyl]-1-(4-fluorophenyl)-4,6-dimethyl-2-oxopyridine-3-carboxamide] | < 100 | 100 to 300 | < 100 | < 100 | – | – | – | –
C=C(C)c1cnc2c(Oc3ccc(NC(=O)c4nn(CC)c(C)c(-c5ccc(F)cc5)c4=O)cc3F)ccnc2c1 [Compound 475, 1-ethyl-5-(4-fluorophenyl)-N-[3-fluoro-4-[(7-prop-1-en-2-yl-1,5-naphthyridin-4-yl)oxy]phenyl]-6-methyl-4-oxopyridazine-3-carboxamide] | < 100 | < 100 | < 100 | < 100 | – | – | – | –
COc1cc2nccc(Oc3ccc(NC(=O)c4nnc(C)c(-c5ccc(F)cc5)c4OC)cc3F)c2nc1OC [Compound 531, N-[4-[(6,7-dimethoxy-1,5-naphthyridin-4-yl)oxy]-3-fluorophenyl]-5-(4-fluorophenyl)-4-methoxy-6-methylpyridazine-3-carboxamide] | < 100 | < 100 | < 100 | < 100 | – | – | – | –
COc1cnc2c(Oc3ccc(NC(=O)c4c(C)c(C)nn(-c5ccc(F)cc5)c4=O)cc3)ccnc2c1 [Compound 733, 2-(4-fluorophenyl)-N-[4-[(7-methoxy-1,5-naphthyridin-4-yl)oxy]phenyl]-5,6-dimethyl-3-oxopyridazine-4-carboxamide] | > 300 | > 300 | < 100 | < 100 | – | – | – | –
COc1cc2ncnc(Oc3ccc(NC(=O)c4ccc(C)n(-c5ccc(F)cc5)c4=O)cc3F)c2nc1OC [Compound 635] | < 100 | < 100 | < 100 | < 100 | – | – | – | –
COCc1cnn(-c2ccc(F)cc2)c(=O)c1C(=O)Nc1ccc(Oc2ccnc3cc(OC)cnc23)c(F)c1 [Compound 532, N-[3-fluoro-4-[(7-methoxy-1,5-naphthyridin-4-yl)oxy]phenyl]-2-(4-fluorophenyl)-5-(methoxymethyl)-3-oxopyridazine-4-carboxamide] | < 100 | > 300 | < 100 | < 100 | – | – | – | –
COc1cnc2c(Oc3ccc(NC(=O)c4c5n(cc(-c6ccc(F)cc6)c4=O)CCOC5)cc3F)ccnc2c1 [Compound 809, N-[3-fluoro-4-[(7-methoxy-1,5-naphthyridin-4-yl)oxy]phenyl]-7-(4-fluorophenyl)-8-oxo-3,4-dihydro-1H-pyrido[2,1-c][1,4]oxazine-9-carboxamide] | – | – | – | – | < 100 | > 300 | < 100 | < 100

The remaining lines, values ahead:

IC50 [1, 5] [nM] | IC50 [2, 6] [nM] | IC50 [3, 7] [nM] | IC50 [4, 8] [nM] | IC50 ([1]; A-172 cells) [nM] | IC50 ([2]; HUVEC cells) [nM] | IC50 ([3]; transfected 293A cells) [nM] | IC50 ([4]; PC-3 cells) [nM] | Compound
< 100 | < 100 | < 100 | < 100 | – | – | – | – | COc1cnc2c(Oc3ccc(NC(=O)c4c(C)nc(C)c(-c5ccc(F)cc5OC)c4O)cc3F)ccnc2c1 [Compound 686, N-[3-fluoro-4-[(7-methoxy-1,5-naphthyridin-4-yl)oxy]phenyl]-5-(4-fluoro-2-methoxyphenyl)-4-hydroxy-2,6-dimethylpyridine-3-carboxamide]
< 100 | < 100 | < 100 | < 100 | – | – | – | – | COCCOc1cc2nccc(Oc3ccc(NC(=O)c4c(C)nc(C)c(-c5ccc(F)cc5C)c4O)cc3)c2nc1OC [Compound 725, 5-(4-fluoro-2-methylphenyl)-4-hydroxy-N-[4-[[6-methoxy-7-(2-methoxyethoxy)-1,5-naphthyridin-4-yl]oxy]phenyl]-2,6-dimethylpyridine-3-carboxamide]
< 100 | < 100 | < 100 | < 100 | – | – | – | – | COc1cc2nccc(Oc3ccc(NC(=O)c4c(C)ccn(-c5ccc(F)cc5C)c4=O)cc3)c2nc1OC [Compound 332, N-[4-[(6,7-dimethoxy-1,5-naphthyridin-4-yl)oxy]phenyl]-1-(4-fluoro-2-methylphenyl)-4-methyl-2-oxopyridine-3-carboxamide]
< 100 | < 100 | < 100 | < 100 | – | – | – | – | COc1cc2nccc(Oc3ccc(NC(=O)c4c(C)nc(C)c(-c5ccc(F)cc5C)c4O)cc3)c2nc1OC [Compound 681, N-[4-[(6,7-dimethoxy-1,5-naphthyridin-4-yl)oxy]phenyl]-5-(4-fluoro-2-methylphenyl)-4-hydroxy-2,6-dimethylpyridine-3-carboxamide]
< 100 | < 100 | < 100 | < 100 | – | – | – | – | C=C(C)c1cnc2c(Oc3ccc(NC(=O)c4c(C)nc(C)c(-c5ccc(F)cc5C)c4O)cc3F)ccnc2c1 [Compound 461, 5-(4-fluoro-2-methylphenyl)-N-[3-fluoro-4-[(7-prop-1-en-2-yl-1,5-naphthyridin-4-yl)oxy]phenyl]-4-hydroxy-2,6-dimethylpyridine-3-carboxamide]
< 100 | < 100 | < 100 | < 100 | – | – | – | – | COc1cc2nccc(Oc3ccc(NC(=O)c4c(CO)nc(C)c(-c5ccc(F)cc5)c4O)cc3F)c2nc1OC [Compound 652, N-[4-[(6,7-dimethoxy-1,5-naphthyridin-4-yl)oxy]-3-fluorophenyl]-5-(4-fluorophenyl)-4-hydroxy-2-(hydroxymethyl)-6-methylpyridine-3-carboxamide]
< 100 | < 100 | < 100 | < 100 | – | – | – | – | COc1cnc2c(Oc3ccc(NC(=O)c4c(C)nc(C)c(-c5ccc(F)cc5C)c4O)cc3)ccnc2c1 [Compound 682, 5-(4-fluoro-2-methylphenyl)-4-hydroxy-N-[4-[(7-methoxy-1,5-naphthyridin-4-yl)oxy]phenyl]-2,6-dimethylpyridine-3-carboxamide]
< 100 | < 100 | < 100 | < 100 | – | – | – | – | Cc1cc2nccc(Oc3ccc(NC(=O)c4c(C)nc(C)c(-c5ccc(F)cc5)c4O)cc3F)c2nc1F [Compound 445, N-[3-fluoro-4-[(6-fluoro-7-methyl-1,5-naphthyridin-4-yl)oxy]phenyl]-5-(4-fluorophenyl)-4-hydroxy-2,6-dimethylpyridine-3-carboxamide]
